What was measured:
[1] = Effect of single daily dose of vitamin C on total 24-hour urinary excretion (DCIP assay); assay type: in vivo, human
Method: In order to determine how daily dosages related to total excretion and whether high daily doses would alter the rate of excretion after a week, groups of test subjects took either 0, 0.25, 1, or 2 gram doses of vitamin C at 8 am daily for 8 consecutive days. All urine was collected and pooled on day 1 and on day 8. The concentration was assayed and the total amount of vitamin C excreted during the 24-hour period was determined, as shown in Fig. 1.
(§1) Vitamin C was assayed by the 2,6-dichlorophenolindophenol (DCIP) assay (see Omaye, T. S. et al. "Selected Methods for the Determination of Ascorbic Acid in Animal Cells," in Methods Enzymol.: Vitamins and Coenzymes, Vol. 62, edited by McCormick, D. B. and L. D. Wright, New York, Academic Press, 1979, pp. 3-11). Samples diluted to 0-40 µg ascorbic acid with 5% phosphoric acid were assayed in a citrate/acetate buffer by reaction with DCIP, and the color at 520 nm compared with standards. Samples were assayed in duplicate and each experiment was repeated.
Vitamin C was administered daily to five individuals at 8 am for eight consecutive days. All urine for each individual was collected during the first and last 24-hour periods and the total amount of vitamin C excreted in the urine was determined by DCIP assay.

[2] = Rate of urinary excretion of a single daily dose of vitamin C, every micturition assayed (DCIP assay); assay type: in vivo, human
Method: In order to determine how rapidly vitamin C is excreted, several individuals took 2 grams of vitamin C daily (single dose) for 8 consecutive days, and collected samples and measured the volume of every micturition during the first and last day. The experiment was repeated with the same individuals after a seven-day rest. Each sample was analyzed to determine the time period, concentration range, and total urinary excretion of vitamin C. The results arc shown in Fig. 2 for three representative individuals. Vitamin C concentration in the urine increased after 4 hours from time of intake and remained elevated for a total of 12 hours, consistent with the hypothesis that vitamin C levels in the body are not elevated for an entire 24 hour period by a single daily dose.
as §1
Fig. 2 illustrates the effect of two grams of daily single-dose vitamin C taken orally for eight days, followed by six days with no intake, and then by eight more days of two grams taken daily in a single dose. Each micturition during the first and last 24 hours of each eight-day period was collected and assayed to determine the total mass of vitamin C excreted. Figures 2a-2c represent excretion from three different individuals.

[3] = 500 mg dose, average person, within the first 12 hr after ingestion; cited from earlier work
[4] = Effect of twice-daily doses of vitamin C on urinary output (DCIP assay); assay type: in vivo, human; settings: for urinary excretion: one individual
Method: Twice-daily doses of 500 mg were sufficient to elevate vitamin C in the urine continuously as shown for 5 individuals in Fig. 4.
as §1
In order to achieve such sustained presence of vitamin C in urine, it is instead necessary to take it at least twice daily, as shown in Fig. 3. Different dosages (from 0.25 to 2.0 grams) of vitamin C were administered to a representative subject every 12 hours, at times 0 and 12 hour in the figure, on four separate days of a four week period. The mass of vitamin C present in the urine was measured at every micturition. The individual was tested one day of the week for four consecutive weeks with progressively increasing dosages followed by six-day periods of rest. As illustrated by the figure, taking at least 500 mg twice daily led to continuously elevated levels of vitamin C in the urine tested.
Each micturition during the entire 24 hours was collected and the total mass of vitamin C excreted by each subject was measured by the DCIP assay. In yet another experiment, two daily doses of 0.5 grams of vitamin C were taken daily for 8 days, then no pills were taken for a week, and then 0.5 g daily were taken again for another 8 days. Each micturition during the first and last 24 hr of each 8 day period was collected and assayed to determine the total mass of vitamin C excreted.

Compound: O=C1O[C@H]([C@@H](O)CO)C(O)=C1O [vitamin C, ascorbic acid]
- rate of urinary excretion versus daily dose ([1]; 0, 0.25, 1 or 2 gram doses at 8 am daily, 24-hour pooled urine): increased with increasing daily doses
- intake rate at which a consistently elevated urinary level (greater than SD) begins ([1]; in vivo): 250-500 mg per day
- one-time dose necessary for detectable excretion ([1]; in vivo): 500 mg
- vitamin C levels in urine ([1]; in vivo): no detectable vitamin C levels in urine
- amount excreted on day 8 compared with day 1 ([1]; single daily dose for 8 consecutive days, 24-hour pooled urine): similar
- share of ingested vitamin C detected in the urine ([2]; 2 grams daily, single dose): only a small percentage
- excretion pattern, first versus last day ([2]; 2 grams daily, single dose, 8 consecutive days): No noticeable difference
- time from intake after which vitamin C concentration in the urine increased ([2]; in vivo): 4 h
- total time vitamin C concentration in the urine remained elevated ([2]; in vivo): 12 h
- fraction of dose absorbed into the body [3]: about 60%
- urinary excretion ([4]; 250 mg every 12 hours): did not cause detectable excretion in amounts exceeding normal quantities
- urinary excretion ([4]; 500 mg or higher (up to 2000 mg) every 12 hours): continuously-detectable elevated levels of excretion
- vitamin C in the urine ([4]; 500 mg twice daily for a week, first and last day): remains continuously elevated
